# Measurements published in US6306432A, “High and low load formulations of IGF-I in multivesicular liposomes” (Chiron Corporation, priority 1997, dated 2001).
# Where a SMILES comes first, the peptide text is derived from it.
# Key:
# [1] = Solubility of IGF-I in aqueous solution versus pH; assay type: physicochemical
# Method: Applicants have also discovered a second parameter that must be taken into consideration in determining the composition of the first aqueous component during manufacture of the IGF-I formulations of this invention. The concentration of IGF-I in solution in the first aqueous component during manufacture is directly proportional to the amount of IGF-I that can be loaded in any give formulation. […] Further studies have shown that up to about 300 mg/mL of IGF-I can be solubilized at a pH below 5. Thus, to obtain and maintain sufficient IGF-I in solution in the first aqueous solution, a buffer or acid is also added to it during manufacture to assure a high enough concentration of dissolved IGF-I in the first aqueous component to obtain a final MVL product containing the desired loading of the drug. For the low load formulations, the pH of the first aqueous component is generally adjusted to a value within the range of 1 to about 5, while for high load formulations the pH range is between 2 and 4.8.
# MG-63 cells = experiment: Mitogenic bioassay, MG-63 cells, MTT stain; assay type: cell-based, human; conditions: standard control in mitogenic assay
# [2] = In vivo pharmacokinetics, serum IGF-I after subcutaneous injection in rats, low load versus free IGF-I; set-up: species or system rat; conditions: 20 mg/kg s.c.
# Method: In-vivo studies. The pharmacokinetic behavior of a low load MVL formulation containing IGF-I was compared to that of unencapsulated IGF-I after subcutaneous injections (lower back) in rats. 20 mg/kg doses of either free IGF-I or a MVL formulation or IGF-I prepared from a stock solution of 5 mg/ml IGF-I was injected into each rat, with 3 rats per group. Sera were collected at various times up to 8 days post injection, and assayed for IGF-I using an IGF-I ELISA kits (DSL-10-5600) (Diagnostic Systems Laboratories (DSL), Webster, Tex.) according to the manufacturer's instructions. The pharmacokinetic parameters were calculated using the WinNonlin program (Scientific Consulting Inc.) and a non-compartmental model.
# [3] = Osmolarity of sucrose and glycylglycine solutions and of the first aqueous component; assay type: physicochemical
# Source text: Drug loading in MVLs is modulated by controlling the osmolarity of the first aqueous component used during manufacture of the MVLs. Osmolarity is the sum of the molar concentrations of solutes present in an aqueous solution. If the solute is present in a dissociated, ionized or aggregated form, osmolarity is defined as the sum of the molar concentrations of the dissociated, ionized or aggregated forms. The solutes that contribute to the osmolarity of an aqueous solution include the IGF-I, and osmotic excipients that are to be encapsulated during manufacture of MVLs. The contribution to the osmolarity of a solution made by any solute in the solution is approximately equivalent to the weight concentration of the solute in the solution (e.g., mg/mL) divided by its molecular weight. Thus, as a general principle, for a given weight concentration, the larger the molecular weight of a solute, the smaller the osmolarity of the solute, and the smaller the contribution of that solute to the overall osmolarity of the solution. It is also possible to reduce the osmolarity of the first aqueous component by reducing the concentration of the active agent. This method will lead to a lower loading of IGF-I if the concentration of other solutes in the first aqueous component remain constant.
Osmolarity ([3]; 0.5 w/v %) [mOsm],Osmolarity ([3]; 1.0 w/v %) [mOsm],Osmolarity ([3]; 1.5 w/v %) [mOsm],Osmolarity ([3]; 2.0 w/v %) [mOsm],Osmolarity ([3]; 2.5 w/v %) [mOsm],Osmolarity ([3]; 3.0 w/v %) [mOsm],Osmolarity ([3]; 4.0 w/v %) [mOsm],Osmolarity ([3]; 5.0 w/v %) [mOsm],Osmolarity ([3]; 6.0 w/v %) [mOsm],Osmolarity ([3]; 7.0 w/v %) [mOsm],Osmolarity ([3]; 8.0 w/v %) [mOsm],Molecule,Solubility of IGF-I in aqueous solution ([1]; at a pH of about 5),IGF-I solubilized ([1]; pH below 5),Bioactivity of standard rhIGF-I (MG-63 cells; listed as recombinant human IGF-I),Bioactivity of standard rhIGF-I (MG-63 cells; listed as rhIGF-I),Time after which free IGF-I is cleared [2]
,,,,,,,,,,,Insulin-like Growth Factor I [IGF-I],drops precipitously at a pH of about 5,up to 300 mg/mL,1.3×10^3 international units (IU)/mL,~ 1.3×10^3 international units (IU)/mL,about 1 day
38,76,114,152,189,227,303,379,455,530,606,"NCC(=O)NCC(=O)O [Glycylglycine, glycylglycine] (H-Gly-Gly-OH)",,,,,
15,30,45,60,76,91,123,156,190,225,261,OC[C@H]1O[C@@](CO)(O[C@H]2O[C@H](CO)[C@@H](O)[C@H](O)[C@H]2O)[C@@H](O)[C@@H]1O [sucrose],,,,,
